The compounds below were run against T1, human recombinant (CHO cell) AT1 receptor (Homo sapiens, UniProt P30556) (assay: Angiotensin II inhibition test (radioligand binding to AT1 receptor)). Settings: test compound concentration 10^−9 M; radioactive iodine-labeled angiotensin II, 37° C., sixty minutes.
T1 construct: expressed in transfected cells; host or cells: CHO cells
T1 sequence (P30556 1-359): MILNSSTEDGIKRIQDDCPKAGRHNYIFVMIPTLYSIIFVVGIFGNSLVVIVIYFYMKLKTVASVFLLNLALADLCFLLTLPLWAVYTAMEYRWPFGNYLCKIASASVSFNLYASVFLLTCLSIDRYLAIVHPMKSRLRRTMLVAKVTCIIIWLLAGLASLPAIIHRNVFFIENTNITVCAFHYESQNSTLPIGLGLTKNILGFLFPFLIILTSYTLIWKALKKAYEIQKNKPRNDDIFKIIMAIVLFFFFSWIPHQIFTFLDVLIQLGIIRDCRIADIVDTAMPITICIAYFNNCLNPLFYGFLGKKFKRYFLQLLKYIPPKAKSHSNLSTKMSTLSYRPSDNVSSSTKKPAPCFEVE
Procedure: A test of inhibition of angiotensin II to human recombinant (CHO cell) AT1 receptor following a method described in the literature (for example, Regul. Pept., vol. 44 (2), page 131 (1993)) was used to measure inhibitory activity to a test compound.
The ligand used was 10^−9 M of a test compound dissolved in 1% DMSO (dimethylsulfoxide). This was reacted with radioactive iodine-labeled angiotensin II at 37° C. for sixty minutes. Taking the inhibition rate of angiotensin II at 10 μM as nonspecific binding, the specific binding rate was calculated by subtracting this nonspecific portion. Table 6 indicates the results (the inhibition rate at test compound concentration: 10^−9 M)

SMILES | Inhibition rate (%)
CCCc1nc(CSCCNC(=O)CSc2ccc3nc(COc4ccc(CC5SC(=O)NC5=O)cc4)n(C)c3c2)c(C(=O)OCC)n1Cc1ccc(-c2ccccc2-c2nnn[nH]2)cc1 (centres unmarked) [Example 19] | 65

Same assay, conditions: test compound concentration 10^−9 M; radioactive iodine-labeled angiotensin II, 37° C., sixty minutes; read-out: Inhibition rate (%)

SMILES | inhibition at 0.001 µM [%]
CCCc1nc(COc2ccc3nc(COc4ccc(CC5SC(=O)NC5=O)cc4)n(C)c3c2)c(C(=O)OCC)n1Cc1ccc(-c2ccccc2-c2nnn[nH]2)cc1 (centres unmarked) [Example 7, 4-{2-[4-(2,4-dioxothiazolidin-5-ylmethyl)phenoxymethyl]-1-methyl-1H-benzimidazol-6-yloxymethyl}-2-propyl-1-[2′-(1H-tetrazol-5-yl)biphenyl-4-ylmethyl]-1H-imidazole-5-carboxylic acid ethyl ester] | 52
CCCc1nc(CSc2ccc3nc(COc4ccc(CC5SC(=O)NC5=O)cc4)n(C)c3c2)c(C(=O)OCC)n1Cc1ccc(-c2ccccc2-c2nnn[nH]2)cc1 (centres unmarked) [Example 33, 4-{2-[4-(2,4-dioxothiazolidin-5-ylmethyl)phenoxymethyl]-1-methyl-1H-benzimidazol-6-ylthiomethyl}-2-propyl-1-[2′-(1H-tetrazol-5-yl)biphenyl-4-ylmethyl]-1H-imidazole-5-carboxylic acid ethyl ester] | 87
CCCc1nc(CSCCSc2ccc(Oc3ccc4nc(COc5ccc(CC6SC(=O)NC6=O)cc5)n(C)c4c3)cc2)c(C(=O)OCC)n1Cc1ccc(-c2ccccc2-c2nnn[nH]2)cc1 (centres unmarked) [Example 14, 4-[2-[4-{1-methyl-2-(4-(2,4-dioxothiazolidin-5-ylmethyl)phenoxymethyl)-1H-benzimidazol-6-yloxy}phenylthio]ethylthiomethyl]-2-propyl-1-[2′-(1H-tetrazol-5-yl)biphenyl-4-ylmethyl]-1H-imidazole-5-carboxylic acid ethyl ester] | 38
CCCCc1nc(Cl)c(C[S+]([O-])c2ccc3nc(COc4ccc(CC5SC(=O)NC5=O)cc4)n(C)c3c2)n1Cc1ccc(-c2ccccc2-c2nnn[nH]2)cc1 (centres unmarked) [Example 23, 5-(4-{6-[2-butyl-4-chloro-1-[2′-(1H-tetrazol-5-yl)biphenyl-4-ylmethyl]-1H-imidazol-5-ylmethylsulfinyl]-1-methyl-1H-benzimidazol-2-ylmethoxy}benzyl)thiazolidine-2,4-dione] | 22
CCCc1nc2c(C)cc(-c3nc4ccc(N(C)CCOc5ccc(CC6SC(=O)NC6=O)cc5)cc4n3C)cc2n1Cc1ccc(-c2ccccc2C(=O)O)cc1 (centres unmarked) [Example 22, 4′-[6-{6-(N-2-[4-(2,4-dioxothiazolidin-5-ylmethyl)phenoxy]ethyl-N-methylamino)-1-methyl-1H-benzimidazol-2-yl}-4-methyl-2-propyl-1H-benzimidazol-1-ylmethyl]biphenyl-2-carboxylic acid] | 60

Next, values leading:

inhibition at 0.001 µM [%] | SMILES
66 | CCCc1nc(CSc2ccc(Oc3ccc4nc(COc5ccc(CC6SC(=O)NC6=O)cc5)n(C)c4c3)cc2)c(C(=O)OC)n1Cc1ccc(-c2ccccc2-c2nnn[nH]2)cc1 (centres unmarked) [Example 30, 4-[4-{2-[4-(2,4-dioxothiazolidin-5-ylmethyl)phenoxymethyl]-1-methyl-1H-benzimidazol-6-yloxy}phenylthiomethyl]-2-propyl-1-[2′-(1H-tetrazol-5-yl)biphenyl-4-ylmethyl]-1H-imidazole-5-carboxylic acid methyl ester]
66 | CCCc1nc2c(C)cc(C(=O)NCc3ccc(Oc4ccc5nc(COc6ccc(CC7SC(=O)NC7=O)cc6)n(C)c5c4)cc3)cc2n1Cc1ccc(-c2ccccc2-c2nnn[nH]2)cc1 (centres unmarked) [Example 28, 5-[4-[6-{4-(4-methyl-2-propyl-1-[2′-(1H-tetrazol-5-yl)biphenyl-4-ylmethyl]-1H-benzimidazol-6-ylcarbonylaminomethyl)phenoxy}-1-methyl-1H-benzimidazol-2-ylmethoxy]benzyl]thiazolidin-2,4-dione]
